Test results taken from US9951372B2, “Compounds and methods for assaying redox state of metabolically active cells and methods for measuring NAD(P)/NAD(P)H” (PROMEGA CORPORATION, priority 2011, dated 2018).
Read-outs that look alike come from different tables or passages of the source.

Experiments:
rat diaphorase = biological target: T1, rat diaphorase (Rattus norvegicus, UniProt P05982); assay type: biochemical; conditions: for Fluorescence time course, Rat: 10 uM NADH
T1 construct: purchased Sigma
T1 sequence (P05982 2-274 limits assumed): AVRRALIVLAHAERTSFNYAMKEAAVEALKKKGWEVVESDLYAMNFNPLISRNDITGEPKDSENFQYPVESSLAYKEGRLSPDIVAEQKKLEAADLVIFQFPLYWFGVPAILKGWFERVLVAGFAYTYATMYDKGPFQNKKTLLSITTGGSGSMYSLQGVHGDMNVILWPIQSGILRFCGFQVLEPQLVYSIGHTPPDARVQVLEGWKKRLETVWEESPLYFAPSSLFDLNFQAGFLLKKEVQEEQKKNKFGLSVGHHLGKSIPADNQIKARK

HEK293 cells = test: Measuring metabolically active cells with quinone fluorescein derivatives; assay type: cell-based; conditions: HEK293 cell dilutions; 60 minutes; 480ex/530em
Method: i. Two-fold serial dilutions of HEK293 cells were prepared in full DMEM media, and 100 μl per well were transferred into wells of 96-well plates. Compounds PBI 4440 and 4412 were diluted in full DMEM media to make 20 μM and 10 μM stocks, respectively. 100 μl of the prepared compound stocks were added to the cells, and the cells were incubated for 60 minutes in a 37° C., 5% CO2 incubator. Following incubation, the cells were removed from incubator, and fluorescence measured with Tecan Infinite 500 at 480ex/Em530em wavelength.

HeLa cells = test: Fluorescent imaging of live cells; assay type: cell-based; conditions: 10 μM substrate
Method: HeLa cells were plated at 40,000 cell/well into wells of an 8-well chambered coverslip and incubated at 37° C.+5% CO2. The media (DMEM) was replaced with warm complete media (with 10% FBS) containing 10 μM PBI-4412, 4413, 4440 or 4441. Cells were then transferred to a confocal microscope for imaging using 10% λ488 nm laser power (4412, 4413, and 4441) or 5% laser power (4440). All images (FIGS. 6a-d) are at 30× magnification.

Clostridium diaphorase = test: Fluorescent NADH detection assay, Clostridium diaphorase; assay type: biochemical; conditions: for FLUs: 1 u/ml Clostridium diaphorase; for Fluorescence time course, Clostridium: 10 uM NADH
Method: Each fluorescent substrate (PBI-4412, 4413, 4440, and 4441) was incubated at 920 μM with 0 μM or 10 μM NADH (Sigma) or a titration of NADH (Table 8) and 1 u/ml rat diaphorase (Sigma) or 1 u/ml Clostridium diaphorase (Sigma) in a volume of 100 μl in 50 mM Tris pH 7.5. Single reactions were prepared in the wells of a 96-well black plate at room temperature. Fluorescence was monitored over the course of two hours at excitation and emission wavelengths of 485 and 527, respectively, using a fluorescence plate reader. […] Table 7 and FIGS. 24a-b show the reaction time course with each substrate with 10 uM NADH. Table 8 and FIG. 25 show the NADH titration at 60 minutes with PBI-4440 and 4412 with rat diaphorase.

Jurkat cells = test: Measuring metabolically active cells with quinone coelenterazine derivatives; assay type: cell-based, human; conditions: Jurkat cell dilutions; 30 minute incubation; Oplophorus luciferase detection reagent
Method: Two-fold serial dilutions of Jurkat cells were prepared in PBS, and 50 μl per well transferred to wells in 96-well plates. Compound PBI 4600 and 4601 were diluted in PBS to make 50 μM and 100 μM stocks, respectively. 10 μl of prepared compound stocks were added to the cells, and the cells were placed into 37° C., 5% CO2 incubator. Following a 30 minute incubation, the cells were removed from incubator, cooled at room temperature for 10 minutes, and 50 μl of Oplophorus luciferase detection reagent (Promega Corporation) added directly to the wells. The samples were mixed, incubated at room temperature for 20 minutes, and luminescence measured.

[1] = 0 μM NADH, 60 min, 1 u/ml rat diaphorase
[2] = 10 μM NADH, 60 min, 1 u/ml rat diaphorase, substrate 920 μM
[3] = 10 μM NADH, 60 min, substrate 920 μM

CC1=CC(=O)C(C)=C(C(C)(C)CC(=O)N(C)CCN(C)C(=O)Oc2ccc3c(c2)Oc2cc(O)ccc2C32OC(=O)c3ccccc32)C1=O (centres unmarked) [PBI 4412, Mono-quinone trimethyllock diamine fluorescein]
FLUs (rat diaphorase; [1]): 3772 FLUs
FLUs (rat diaphorase; [2]): 170571 FLUs
Fluorescence time course, Rat (rat diaphorase; 2 min): 10099 FLUs
Fluorescence time course, Rat (rat diaphorase; 4 min): 24171 FLUs
Fluorescence time course, Rat (rat diaphorase; 5 min): 33247 FLUs
Fluorescence time course, Rat (rat diaphorase; 10 min): 62502 FLUs
Fluorescence time course, Rat (rat diaphorase; 20 min): 106834 FLUs
Fluorescence time course, Rat (rat diaphorase; 30 min): 133278 FLUs
Fluorescence time course, Rat (rat diaphorase; 40 min): 151941 FLUs
Fluorescence time course, Rat (rat diaphorase; 50 min): 162636 FLUs
Fluorescence time course, Rat (rat diaphorase; 60 min): 170571 FLUs
Fluorescence time course, Rat (rat diaphorase; 70 min): 175380 FLUs
Fluorescence time course, Rat (rat diaphorase; 80 min): 177516 FLUs
Fluorescence time course, Rat (rat diaphorase; 90 min): 178423 FLUs
Fluorescence time course, Rat (rat diaphorase; 100 min): 180027 FLUs
Fluorescence time course, Rat (rat diaphorase; 110 min): 182051 FLUs
Fluorescence time course, Rat (rat diaphorase; 120 min): 181077 FLUs
FLUs (rat diaphorase; NADH 0 μM, 60 minutes, rat diaphorase): 3772 FLUs
FLUs (rat diaphorase; NADH 1.25 μM, 60 minutes, rat diaphorase): 26228 FLUs
FLUs (rat diaphorase; NADH 2.5 μM, 60 minutes, rat diaphorase): 51005 FLUs
FLUs (rat diaphorase; NADH 5 μM, 60 minutes, rat diaphorase): 97995 FLUs
FLUs (rat diaphorase; NADH 10 μM, 60 minutes, rat diaphorase): 170571 FLUs
FLUs (rat diaphorase; NADH 20 μM, 60 minutes, rat diaphorase): 183286 FLUs
FLUs (rat diaphorase; NADH 40 μM, 60 minutes, rat diaphorase): 185532 FLUs
FLUs (rat diaphorase; NADH 80 μM, 60 minutes, rat diaphorase): 183372 FLUs
relationship of fluorescence to cell number (HEK293 cells): linear correlation between cell number and fluorescence
reduction of substrate in live cells (confocal images) (HeLa cells): only reduced once inside cells
FLUs (Clostridium diaphorase; 0 μM NADH, 60 min): 3940 FLUs
FLUs (Clostridium diaphorase; [3]): 125352 FLUs
Fluorescence time course, Clostridium (Clostridium diaphorase; 2 min): 9933 FLUs
Fluorescence time course, Clostridium (Clostridium diaphorase; 4 min): 24883 FLUs
Fluorescence time course, Clostridium (Clostridium diaphorase; 5 min): 33881 FLUs
Fluorescence time course, Clostridium (Clostridium diaphorase; 10 min): 60458 FLUs
Fluorescence time course, Clostridium (Clostridium diaphorase; 20 min): 95260 FLUs
Fluorescence time course, Clostridium (Clostridium diaphorase; 30 min): 112465 FLUs
Fluorescence time course, Clostridium (Clostridium diaphorase; 40 min): 120688 FLUs
Fluorescence time course, Clostridium (Clostridium diaphorase; 50 min): 123934 FLUs
Fluorescence time course, Clostridium (Clostridium diaphorase; 60 min): 125352 FLUs
Fluorescence time course, Clostridium (Clostridium diaphorase; 70 min): 126364 FLUs
Fluorescence time course, Clostridium (Clostridium diaphorase; 80 min): 125242 FLUs
Fluorescence time course, Clostridium (Clostridium diaphorase; 90 min): 124786 FLUs
Fluorescence time course, Clostridium (Clostridium diaphorase; 100 min): 124434 FLUs
Fluorescence time course, Clostridium (Clostridium diaphorase; 110 min): 124460 FLUs
Fluorescence time course, Clostridium (Clostridium diaphorase; 120 min): 124182 FLUs

CC1=CC(=O)C(C)=C(C(C)(C)CC(=O)N(C)CCN(C)C(=O)Oc2ccc3c(c2)Oc2cc(OC(=O)N(C)CCN(C)C(=O)CC(C)(C)C4=C(C)C(=O)C=C(C)C4=O)ccc2C32OC(=O)c3ccccc32)C1=O [PBI 4413, Bis-quinone trimethyllock diamine fluorescein]
FLUs (rat diaphorase; [1]): 39 FLUs
FLUs (rat diaphorase; [2]): 7397 FLUs
Fluorescence time course, Rat (rat diaphorase; 2 min): 180 FLUs
Fluorescence time course, Rat (rat diaphorase; 4 min): 419 FLUs
Fluorescence time course, Rat (rat diaphorase; 5 min): 545 FLUs
Fluorescence time course, Rat (rat diaphorase; 10 min): 1091 FLUs
Fluorescence time course, Rat (rat diaphorase; 20 min): 2151 FLUs
Fluorescence time course, Rat (rat diaphorase; 30 min): 3407 FLUs
Fluorescence time course, Rat (rat diaphorase; 40 min): 4669 FLUs
Fluorescence time course, Rat (rat diaphorase; 50 min): 6127 FLUs
Fluorescence time course, Rat (rat diaphorase; 60 min): 7397 FLUs
Fluorescence time course, Rat (rat diaphorase; 70 min): 9925 FLUs
Fluorescence time course, Rat (rat diaphorase; 80 min): 10959 FLUs
Fluorescence time course, Rat (rat diaphorase; 90 min): 12101 FLUs
Fluorescence time course, Rat (rat diaphorase; 100 min): 13732 FLUs
Fluorescence time course, Rat (rat diaphorase; 110 min): 15434 FLUs
Fluorescence time course, Rat (rat diaphorase; 120 min): 16666 FLUs
reduction of substrate in live cells (confocal images) (HeLa cells): only reduced once inside cells
FLUs (Clostridium diaphorase; 0 μM NADH, 60 min): 255 FLUs
FLUs (Clostridium diaphorase; [3]): 2517 FLUs
Fluorescence time course, Clostridium (Clostridium diaphorase; 2 min): 264 FLUs
Fluorescence time course, Clostridium (Clostridium diaphorase; 4 min): 457 FLUs
Fluorescence time course, Clostridium (Clostridium diaphorase; 5 min): 698 FLUs
Fluorescence time course, Clostridium (Clostridium diaphorase; 10 min): 1195 FLUs
Fluorescence time course, Clostridium (Clostridium diaphorase; 20 min): 2167 FLUs
Fluorescence time course, Clostridium (Clostridium diaphorase; 30 min): 2896 FLUs
Fluorescence time course, Clostridium (Clostridium diaphorase; 40 min): 3329 FLUs
Fluorescence time course, Clostridium (Clostridium diaphorase; 50 min): 3519 FLUs
Fluorescence time course, Clostridium (Clostridium diaphorase; 60 min): 3664 FLUs
Fluorescence time course, Clostridium (Clostridium diaphorase; 70 min): 3803 FLUs
Fluorescence time course, Clostridium (Clostridium diaphorase; 80 min): 3841 FLUs
Fluorescence time course, Clostridium (Clostridium diaphorase; 90 min): 3798 FLUs
Fluorescence time course, Clostridium (Clostridium diaphorase; 100 min): 3801 FLUs
Fluorescence time course, Clostridium (Clostridium diaphorase; 110 min): 3820 FLUs
Fluorescence time course, Clostridium (Clostridium diaphorase; 120 min): 3821 FLUs

CC1=C(C)C(=O)C(C(C)(C)CC(=O)N(C)CCN(C)C(=O)Oc2c(Cc3ccco3)nc3c(Cc4ccccc4)nc(-c4ccccc4)cn23)=C(C)C1=O [PBI 4600]
relationship of luminescence to cell number (Jurkat cells): linear correlation between cell number and luminescence

CC1=C(C)C(=O)C(C(C)(C)CC(=O)N(C)CCN(C)C(=O)Oc2c(Cc3ccccc3)nc3c(Cc4ccccc4)nc(-c4ccccc4)cn23)=C(C)C1=O [PBI 4601]
relationship of luminescence to cell number (Jurkat cells): linear correlation between cell number and luminescence

CC1=C(C)C(=O)C(C(C)(C)CC(=O)N(C)CCN(C)C(=O)Oc2ccc3c(c2)Oc2cc(OC(=O)N(C)CCN(C)C(=O)CC(C)(C)C4=C(C)C(=O)C(C)=C(C)C4=O)ccc2C32OC(=O)c3ccccc32)=C(C)C1=O [PBI 4441, Bis-quinone trimethyllock diamine fluorescein]
FLUs (rat diaphorase; [1]): 120 FLUs
FLUs (rat diaphorase; [2]): 7387 FLUs
Fluorescence time course, Rat (rat diaphorase; 2 min): 302 FLUs
Fluorescence time course, Rat (rat diaphorase; 4 min): 608 FLUs
Fluorescence time course, Rat (rat diaphorase; 5 min): 827 FLUs
Fluorescence time course, Rat (rat diaphorase; 10 min): 1961 FLUs
Fluorescence time course, Rat (rat diaphorase; 20 min): 3454 FLUs
Fluorescence time course, Rat (rat diaphorase; 30 min): 4460 FLUs
Fluorescence time course, Rat (rat diaphorase; 40 min): 5442 FLUs
Fluorescence time course, Rat (rat diaphorase; 50 min): 6457 FLUs
Fluorescence time course, Rat (rat diaphorase; 60 min): 7387 FLUs
Fluorescence time course, Rat (rat diaphorase; 70 min): 8891 FLUs
Fluorescence time course, Rat (rat diaphorase; 80 min): 9545 FLUs
Fluorescence time course, Rat (rat diaphorase; 90 min): 9915 FLUs
Fluorescence time course, Rat (rat diaphorase; 100 min): 10496 FLUs
Fluorescence time course, Rat (rat diaphorase; 110 min): 10736 FLUs
Fluorescence time course, Rat (rat diaphorase; 120 min): 11149 FLUs
reduction of substrate in live cells (confocal images) (HeLa cells): only reduced once inside cells
FLUs (Clostridium diaphorase; 0 μM NADH, 60 min): 314 FLUs
FLUs (Clostridium diaphorase; [3]): 2570 FLUs
Fluorescence time course, Clostridium (Clostridium diaphorase; 2 min): 354 FLUs
Fluorescence time course, Clostridium (Clostridium diaphorase; 4 min): 481 FLUs
Fluorescence time course, Clostridium (Clostridium diaphorase; 5 min): 576 FLUs
Fluorescence time course, Clostridium (Clostridium diaphorase; 10 min): 1152 FLUs
Fluorescence time course, Clostridium (Clostridium diaphorase; 20 min): 1974 FLUs
Fluorescence time course, Clostridium (Clostridium diaphorase; 30 min): 2334 FLUs
Fluorescence time course, Clostridium (Clostridium diaphorase; 40 min): 2515 FLUs
Fluorescence time course, Clostridium (Clostridium diaphorase; 50 min): 2514 FLUs
Fluorescence time course, Clostridium (Clostridium diaphorase; 60 min): 2570 FLUs
Fluorescence time course, Clostridium (Clostridium diaphorase; 70 min): 2584 FLUs
Fluorescence time course, Clostridium (Clostridium diaphorase; 80 min): 2561 FLUs
Fluorescence time course, Clostridium (Clostridium diaphorase; 90 min): 2539 FLUs
Fluorescence time course, Clostridium (Clostridium diaphorase; 100 min): 2555 FLUs
Fluorescence time course, Clostridium (Clostridium diaphorase; 110 min): 2515 FLUs
Fluorescence time course, Clostridium (Clostridium diaphorase; 120 min): 2570 FLUs
